How the values were obtained:
Conditions in all cases: incubation time: 72 h
DU-4475 [1] = test: normalised response (% of control), CellTox Green; higher = less cell death (100 = DMSO, 0 = benzethonium chloride kill control)
How it was run: (§1)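 Each value is the plate-normalised signal at one concentration of the series. Breast cancer cell lines (20 µl suspension) were incubated 72 h in 384-well plates with compound at 5 concentrations in 10-fold steps over a compound-specific 10,000-fold range. CellTox Green and then CellTiter-Glo were read, and each plate was scaled to 0.1 % DMSO (100) and a positive kill control (0).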

CAL-51 [2] = test: as above
How it was run: as §1

MDA-MB-436 [3] = test: as above
How it was run: as §1

MDA-MB-453 [4] = test: as above
How it was run: as §1

BT-474 [5] = test: as above
How it was run: as §1

CAL-85-1 [6] = test: as above
How it was run: as §1

HCC1599 [7] = test: as above
How it was run: as §1

BT-549 [8] = test: as above
How it was run: as §1

MDA-MB-468 [9] = test: as above
How it was run: as §1

MDA-MB-231 [10] = test: as above
How it was run: as §1

MCF-10A [11] = test: as above
How it was run: as §1

CAL-148 [12] = test: as above
How it was run: as §1

HDQ-P1 [13] = test: as above
How it was run: as §1

CAL-120 [14] = test: as above
How it was run: as §1

DU-4475 [15] = test: normalised response (% of control), CellTiter-Glo; higher = more viable cells (100 = DMSO, 0 = benzethonium chloride kill control)
Experimental: (§2)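 DSRT, 72 h incubation, CellTox Green / CellTiter-Glo readout. Signal is normalised to DMSO and benzethonium chloride controls. Value is the normalised response at dose 3.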

MFM-223 [16] = test: as above
Experimental: as §2

SK-BR-3 [17] = test: as above
Experimental: as §2

HCC1143 [18] = test: as above
Experimental: as §2

CAL-51 [19] = test: as above
Experimental: as §2

MDA-MB-436 [20] = test: as above
Experimental: as §2

MDA-MB-453 [21] = test: as above
Experimental: as §2

BT-474 [22] = test: as above
Experimental: as §2

HCC1937 [23] = test: as above
Experimental: as §2

CAL-85-1 [24] = test: as above
Experimental: as §2

HCC1599 [25] = test: as above
Experimental: as §2

BT-549 [26] = test: as above
Experimental: as §2

MDA-MB-468 [27] = test: as above
Experimental: as §2

MDA-MB-231 [28] = test: as above
Experimental: as §2

Hs578T [29] = test: as above
Experimental: as §2

MCF-10A [30] = test: as above
Experimental: as §2

CAL-148 [31] = test: as above
Experimental: as §2

HDQ-P1 [32] = test: as above
Experimental: as §2

CAL-120 [33] = test: as above
Experimental: as §2

DU-4475 [34] = test: normalised response (% of control), CellTiter-Glo; higher = more viable cells (100 = DMSO, 0 = benzethonium chloride kill control); remark: listed apart in the source
How it was run: as §1

MFM-223 [35] = test: as above; remark: listed apart in the source
How it was run: as §1

SK-BR-3 [36] = test: as above; remark: listed apart in the source
How it was run: as §1

HCC1143 [37] = test: as above; remark: listed apart in the source
How it was run: as §1

CAL-51 [38] = test: as above; remark: listed apart in the source
How it was run: as §1

MDA-MB-436 [39] = test: as above; remark: listed apart in the source
How it was run: as §1

MDA-MB-453 [40] = test: as above; remark: listed apart in the source
How it was run: as §1

BT-474 [41] = test: as above; remark: listed apart in the source
How it was run: as §1

HCC1937 [42] = test: as above; remark: listed apart in the source
How it was run: as §1

CAL-85-1 [43] = test: as above; remark: listed apart in the source
How it was run: as §1

HCC1599 [44] = test: as above; remark: listed apart in the source
How it was run: as §1

BT-549 [45] = test: as above; remark: listed apart in the source
How it was run: as §1

MDA-MB-468 [46] = test: as above; remark: listed apart in the source
How it was run: as §1

MDA-MB-231 [47] = test: as above; remark: listed apart in the source
How it was run: as §1

Hs578T [48] = test: as above; remark: listed apart in the source
How it was run: as §1

MCF-10A [49] = test: as above; remark: listed apart in the source
How it was run: as §1

CAL-148 [50] = test: as above; remark: listed apart in the source
How it was run: as §1

HDQ-P1 [51] = test: as above; remark: listed apart in the source
How it was run: as §1

CAL-120 [52] = test: as above; remark: listed apart in the source
How it was run: as §1

MFM-223 [53] = test: normalised response (% of control), CellTox Green; higher = less cell death (100 = DMSO, 0 = benzethonium chloride kill control)
How it was run: as §1

HCC1143 [54] = test: as above
How it was run: as §1

HCC1937 [55] = test: as above
How it was run: as §1

Hs578T [56] = test: as above
How it was run: as §1

| Structure (SMILES) | normalised response (DU-4475 [1]) [%] | normalised response (CAL-51 [2]) [%] | normalised response (MDA-MB-436 [3]) [%] | normalised response (MDA-MB-453 [4]) [%] | normalised response (BT-474 [5]) [%] | normalised response (CAL-85-1 [6]) [%] | normalised response (HCC1599 [7]) [%] | normalised response (BT-549 [8]) [%] | normalised response (MDA-MB-468 [9]) [%] | normalised response (MDA-MB-231 [10]) [%] | normalised response (MCF-10A [11]) [%] | normalised response (CAL-148 [12]) [%] | normalised response (HDQ-P1 [13]) [%] | normalised response (CAL-120 [14]) [%] | normalised response (DU-4475 [34]) [%] | normalised response (MFM-223 [35]) [%] | normalised response (SK-BR-3 [36]) [%] | normalised response (HCC1143 [37]) [%] | normalised response (CAL-51 [38]) [%] | normalised response (MDA-MB-436 [39]) [%] | also measured |
| --- | --- | --- | --- | --- | --- | --- | --- | --- | --- | --- | --- | --- | --- | --- | --- | --- | --- | --- | --- | --- | --- |
| Cn1cc(C[C@@H](N)C(=O)O)c2ccccc21 [1-methyl-D-tryptophan] (50 nM) | 103 | 80.4 | 73.2 | 105 | 99.9 | 98.5 | 94.2 | 88 | 99.9 | 83 | 102 | 68.5 | 105 | 96.8 | – | – | – | – | – | – | normalised response (DU-4475 [15]): 100%; normalised response (MFM-223 [16]): 93.4%; normalised response (SK-BR-3 [17]): 90.8%; normalised response (HCC1143 [18]): 99%; normalised response (CAL-51 [19]): 67.8%; normalised response (MDA-MB-436 [20]): 102%; normalised response (MDA-MB-453 [21]): 96%; normalised response (BT-474 [22]): 103%; normalised response (HCC1937 [23]): 96.2%; normalised response (CAL-85-1 [24]): 102%; normalised response (HCC1599 [25]): 92.6%; normalised response (BT-549 [26]): 107%; normalised response (MDA-MB-468 [27]): 92.6%; normalised response (MDA-MB-231 [28]): 98.5%; normalised response (Hs578T [29]): 95.4%; normalised response (MCF-10A [30]): 102%; normalised response (CAL-148 [31]): 90.1%; normalised response (HDQ-P1 [32]): 102%; normalised response (CAL-120 [33]): 104% |
| CC(C)n1nc(-c2ccc3oc(N)nc3c2)c2c(N)ncnc21 [INK128] (100 nM) | 94 | 87.6 | 94.4 | 26 | 96.5 | 101 | 95.5 | 115 | 137 | 108 | 95.8 | 58.8 | 108 | 97.1 | 66 | 32.2 | 22.6 | 39.9 | 29.3 | 48.6 | normalised response (MDA-MB-453 [40]): 37.2%; normalised response (BT-474 [41]): 50.4%; normalised response (HCC1937 [42]): 59.7%; normalised response (CAL-85-1 [43]): 35.4%; normalised response (HCC1599 [44]): 68%; normalised response (BT-549 [45]): 30.7%; normalised response (MDA-MB-468 [46]): 39.5%; normalised response (MDA-MB-231 [47]): 50.3%; normalised response (Hs578T [48]): 35.1%; normalised response (MCF-10A [49]): 43.5%; normalised response (CAL-148 [50]): 32.7%; normalised response (HDQ-P1 [51]): 42.6%; normalised response (CAL-120 [52]): 30.6%; normalised response (MFM-223 [53]): 93.9%; normalised response (HCC1143 [54]): 8.7%; normalised response (HCC1937 [55]): 96.1%; normalised response (Hs578T [56]): 65.8% |
| N[C@@H](Cc1ccc(N(CCCl)CCCl)cc1)C(=O)O [Melphalan] (1250 nM) | 51.8 | -30.1 | 84 | 25.6 | -13.4 | -12 | 45.5 | 28.1 | -18.1 | -55.7 | -50.4 | 4.59 | -17.2 | 72.2 | 0 | 0.49 | -0.01 | 34.5 | 0.26 | 9.28 | normalised response (MDA-MB-453 [40]): 0.2%; normalised response (BT-474 [41]): 1.75%; normalised response (HCC1937 [42]): 4.2%; normalised response (CAL-85-1 [43]): 0.23%; normalised response (HCC1599 [44]): 2.61%; normalised response (BT-549 [45]): 22.1%; normalised response (MDA-MB-468 [46]): 0.81%; normalised response (MDA-MB-231 [47]): 0.06%; normalised response (Hs578T [48]): 16.4%; normalised response (MCF-10A [49]): 0.24%; normalised response (CAL-148 [50]): 7.68%; normalised response (HDQ-P1 [51]): 1.18%; normalised response (CAL-120 [52]): 50%; normalised response (MFM-223 [53]): 10.1%; normalised response (HCC1143 [54]): 95.9%; normalised response (HCC1937 [55]): 18.1%; normalised response (Hs578T [56]): 35.8% |
| CO[C@H]1C[C@@H]2CC[C@@H](C)[C@@](O)(O2)C(=O)C(=O)N2CCCC[C@H]2C(=O)O[C@H]([C@H](C)C[C@@H]2CC[C@@H](O)[C@H](OC)C2)CC(=O)[C@H](C)/C=C(\C)[C@@H](O)[C@@H](OC)C(=O)[C@H](C)C[C@H](C)/C=C/C=C/C=C/1C [Sirolimus] (10 nM) | 102 | 104 | 69.6 | 107 | 94.8 | 108 | 90.7 | 87.2 | 157 | 116 | 104 | 52.9 | 109 | 105 | 88.5 | 70.9 | 66.4 | 69.1 | 65.5 | 79.1 | normalised response (MDA-MB-453 [40]): 66.2%; normalised response (BT-474 [41]): 83.5%; normalised response (HCC1937 [42]): 81.5%; normalised response (CAL-85-1 [43]): 63%; normalised response (HCC1599 [44]): 98.8%; normalised response (BT-549 [45]): 58.3%; normalised response (MDA-MB-468 [46]): 51.8%; normalised response (MDA-MB-231 [47]): 93.9%; normalised response (Hs578T [48]): 67.5%; normalised response (MCF-10A [49]): 102%; normalised response (CAL-148 [50]): 67.1%; normalised response (HDQ-P1 [51]): 82.8%; normalised response (CAL-120 [52]): 67.3%; normalised response (MFM-223 [53]): 91.1%; normalised response (HCC1143 [54]): 115%; normalised response (HCC1937 [55]): 97.7%; normalised response (Hs578T [56]): 59.7% |

Source: the supplement of paper PMC4862054
